Experimental data from the supplement of paper PMC10702517.
± gives the standard deviation.

How the values were obtained:
[1] = chemical recovery from spiked human plasma; higher = better extraction; conditions: pooled human plasma
[2] = chemical recovery into PDMS from spiked human plasma; higher = better extraction; conditions: pooled human plasma, extraction method: PES with PDMS
[3] = chemical recovery by SPE of plasma after PDMS sampling; higher = better extraction; conditions: pooled human plasma, extraction method: HLB SPE of plasma after PES
[4] = extraction method: SPE only (HLB 96-well), PES comparison experiment
[5] = extraction method: PES+SPE (3 d PDMS equilibration then HLB SPE)
[6] = extraction method: SPE only (HLB 96-well)
[7] = extraction method: solvent precipitation (ACN + hexane)
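Throughout, for chemical recovery by SPE of plasma after PDMS sampling: over 400 spiked chemicals quantified by LC-HRMS or GC-HRMS via internal standard calibration, recovery relative to spike mix added to unspiked plasma extract to correct matrix effects.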

SMILES	chemical recovery [1, 4]	chemical recovery into PDMS ([2]; equilibration time (d): 1)	chemical recovery into PDMS ([2]; equilibration time (d): 3)	chemical recovery into PDMS ([2]; equilibration time (d): 6)	chemical recovery by SPE of plasma ([3]; equilibration time (d): 1)	chemical recovery by SPE of plasma ([3]; equilibration time (d): 3)	chemical recovery by SPE of plasma ([3]; equilibration time (d): 6)	chemical recovery [1, 5]	chemical recovery [1, 6]	chemical recovery [1, 7]
O=[N+]([O-])c1cc[n+]([O-])c2ccccc12 [4-Nitroquinoline-1-oxide]	42.3 ± 8.4%	14.2 ± 0.49%	14.7 ± 1.4%	17 ± 0.8%	15.1 ± 2.7%	18.4 ± 2.5%	13.5 ± 1.6%	–	–	–
c1cc2c3c(c1)ccc1cccc(c13)C2 [4H-Cyclopenta(def)phenanthrene]	19.6 ± 3.7%	94.4 ± 32%	93.2 ± 14%	108 ± 43%	1.81 ± 1.4%	2 ± 0.34%	1.85 ± 0.12%	–	–	–
Clc1ccc2[nH]nnc2c1 [5-Chlorobenzotriazole]	52.8 ± 6.1%	0.3 ± 0.043%	0.905 ± 0.21%	1.34 ± 0.43%	55.2 ± 9.2%	55.2 ± 5%	52.3 ± 6.8%	44.7 ± 2.5%	41.8 ± 2.6%	59.3 ± 5%
Cc1ccc2[nH]nnc2c1 [5-Methyl-1H-benzotriazole]	51.7 ± 8.2%	3.14 ± 0.15%	6.47 ± 1.2%	8.16 ± 2%	45.5 ± 4.2%	42.2 ± 5.6%	36 ± 2.7%	54.6 ± 2.9%	46.3 ± 3%	58.1 ± 3.9%
CCNc1ccc2c(C)cc(=O)oc2c1 [7-(Ethylamino)-4-methylcoumarin]	50 ± 6%	26.7 ± 4.1%	28.7 ± 3%	30.7 ± 1.9%	6.09 ± 0.59%	4.96 ± 0.66%	2.87 ± 0.15%	42.9 ± 6.9%	45.6 ± 5.5%	77.9 ± 3.2%
Cc1cc(=O)oc2cc(N)ccc12 [7-Amino-4-methylcoumarin]	53.5 ± 9.9%	12.65 ± 0.075%	17.9 ± 2.4%	18.9 ± 2.1%	39.4 ± 4.9%	34.9 ± 3.5%	28.3 ± 3.2%	42.6 ± 3.4%	–	70.4 ± 2%
CN(Cc1nc2c(N)nc(N)nc2nc1O)c1ccc(C(=O)N[C@@H](CCC(=O)O)C(=O)O)cc1 [7-Hydroxymethotrexate]	37.4 ± 4.5%	–	–	0.0138 ± 0.079%	38.5 ± 7.5%	45.7 ± 5.5%	40.3 ± 0.48%	–	–	–
NC(=O)N1c2ccccc2CC(O)c2ccccc21 (stereo not drawn) [10,11-Dihydro-10-hydroxycarbamazepine]	51.2 ± 4.5%	0.612 ± 0.1%	1.31 ± 0.36%	1.45 ± 0.21%	59.8 ± 8.4%	60.8 ± 6%	55.6 ± 7.7%	47.3 ± 4.9%	49.1 ± 5.4%	71.1 ± 3%
C[C@]12CC(=O)[C@H]3[C@@H](CCC4=CC(=O)CC[C@@]43C)[C@@H]1CC[C@@H]2O [11-Ketotestosterone]	50.5 ± 4.8%	4.7 ± 9.7%	–	–	34.3 ± 3.9%	30.6 ± 2.7%	21.9 ± 3.6%	–	–	–
COC[P+](c1ccccc1)(c1ccccc1)c1ccccc1 [(Methoxymethyl)triphenylphosphonium]	48.7 ± 4.5%	–	0.00031 ± 0.0019%	0.00283 ± 0.0035%	50.8 ± 5.7%	50.4 ± 4.2%	48.9 ± 5.7%	40.1 ± 4.1%	36.1 ± 3.5%	71.1 ± 3.3%
C/C(=N\C#N)N(C)Cc1ccc(Cl)nc1 [Acetamiprid]	56.8 ± 6.8%	9.86 ± 0.62%	15.7 ± 2.8%	17.2 ± 2.9%	46.9 ± 3.9%	42.3 ± 4.8%	33.6 ± 4%	51.9 ± 4.8%	40.7 ± 3%	75 ± 2.6%
O=c1c2ccccc2[nH]c2ccccc12 [Acridone]	50.5 ± 5%	11.4 ± 0.43%	19.2 ± 3.2%	21.8 ± 3.6%	57.8 ± 8.4%	55.6 ± 1.6%	44.9 ± 4.3%	62.8 ± 6%	47.2 ± 3.6%	71.9 ± 1.1%
ClC1=C(Cl)C2(Cl)C3C4C=CC(C4)C3C1(Cl)C2(Cl)Cl (stereo not drawn) [Aldrin]	18.4 ± 4%	84.1 ± 2.4%	90.4 ± 12%	99.8 ± 12%	1.3 ± 0.86%	1.34 ± 0.14%	1.4 ± 0.28%	–	1.53 ± 0.48%	–
C=CCC1=C(C)C(OC(=O)C2C(C=C(C)C)C2(C)C)CC1=O (stereo not drawn) [Allethrin]	34.6 ± 6.6%	36 ± 1.6%	38.6 ± 3.5%	37.9 ± 1.6%	–	0.042 ± 0.073%	–	–	–	–
CC(=O)OCC(=O)[C@@]12OC3(CCCC3)O[C@@H]1C[C@H]1[C@@H]3CCC4=CC(=O)C=C[C@]4(C)[C@@]3(F)[C@@H](O)C[C@@]12C [Amcinonide]	39.5 ± 7.4%	35.6 ± 2.6%	38.1 ± 2.4%	35.6 ± 2.7%	1.91 ± 3.3%	1.48 ± 2.6%	–	–	–	–
CCNc1nc(NC(C)C)nc(SC)n1 [Ametryn]	44.1 ± 4.6%	13.2 ± 4.9%	20.6 ± 7.4%	23.9 ± 3.2%	24.3 ± 4.5%	9.36 ± 2%	4.74 ± 0.84%	–	41.6 ± 3.1%	72.1 ± 3.1%
CCCCc1oc2ccccc2c1C(=O)c1cc(I)c(OCCN(CC)CC)c(I)c1 [Amiodarone]	–	0.0444 ± 0.019%	0.131 ± 0.037%	0.0473 ± 0.062%	0.357 ± 0.17%	0.127 ± 0.05%	–	–	37.9 ± 13%	106 ± 22%
CN(C)CCC=C1c2ccccc2CCc2ccccc21 [Amitriptyline]	44.1 ± 5.6%	0.00525 ± 0.0045%	0.0228 ± 0.034%	–	0.152 ± 0.26%	0.14 ± 0.12%	0.0767 ± 0.067%	0.236 ± 0.082%	39.4 ± 10%	77.5 ± 5.1%
CC(C)(C#N)c1cc(Cn2cncn2)cc(C(C)(C)C#N)c1 [Anastrozole]	47.9 ± 3.9%	34.8 ± 2.8%	39.8 ± 1.5%	41.8 ± 2.5%	14.8 ± 1.9%	9.48 ± 1.3%	4.8 ± 0.57%	51.4 ± 5.5%	44.4 ± 1.8%	69.1 ± 2.4%
Nc1ccc(/N=N/c2ccccc2)cc1 [Aniline Yellow]	28.9 ± 4.3%	12.3 ± 4.1%	10.4 ± 4.8%	11.3 ± 3%	6.65 ± 1.6%	7.55 ± 0.93%	5.19 ± 0.91%	–	–	–
CCNc1nc(Cl)nc(NC(C)C)n1 [Atrazine]	50.6 ± 6.8%	34.5 ± 1.7%	39.1 ± 2.9%	39.4 ± 0.96%	6.06 ± 0.65%	4.12 ± 0.74%	2.39 ± 0.2%	43.7 ± 5.2%	41.5 ± 2.1%	62.9 ± 5.5%
CN1CCCC(n2nc(Cc3ccc(Cl)cc3)c3ccccc3c2=O)CC1 (stereo not drawn) [Azelastine]	43.9 ± 6%	0.00383 ± 0.0066%	–	0.00617 ± 0.0099%	1.03 ± 0.14%	1.27 ± 0.31%	0.461 ± 0.41%	–	–	64.8 ± 3.2%
c1ccc(/N=N/c2ccccc2)cc1 [Azobenzene]	8.55 ± 2.6%	26.2 ± 3.9%	28.4 ± 5.6%	27.9 ± 4%	0.184 ± 0.32%	0.401 ± 0.35%	0.284 ± 0.25%	–	–	–
CO/C=C(/C(=O)O)c1ccccc1Oc1cc(Oc2ccccc2C#N)ncn1 [Azoxystrobin acid]	51.7 ± 3.9%	–	0.00158 ± 0.0027%	–	46.8 ± 4.8%	50.4 ± 2%	45.9 ± 2.3%	–	–	76.6 ± 5.2%
CO/C=C(/C(=O)OC)c1ccccc1Oc1cc(Oc2ccccc2C#N)ncn1 [Azoxystrobin]	51.9 ± 7.1%	40.1 ± 1.9%	43.9 ± 3.2%	43 ± 0.52%	5.12 ± 0.84%	3.88 ± 0.44%	2.15 ± 0.22%	46.6 ± 5.9%	46.7 ± 1.1%	75.6 ± 3.4%
